Experimental data from ChEMBL document CHEMBL5584298, “Discovery of Cytotoxic Nitric Oxide-Releasing Piperlongumine Derivatives Targeting Wnt/β-Catenin in Colon Cancer Cells” (J Nat Prod, 2024).

What was measured:
A549 [1] = test: Antiproliferative activity against human A549 cells incubated for 72 hrs by MTT assay; type: functional, cell-based; conditions: A549, 72 h
HCT-116 [2] = test: Antiproliferative activity against human HCT-116 cells incubated for 72 hrs by MTT assay; type: functional, cell-based; conditions: HCT-116, 72 h
A549 [3] = test: Antiproliferative activity against human A549 cells at 0.1 to 100 uM by MTT assay; type: functional, cell-based; conditions: dose 0.1-100 µM, time 24-72 hrs, TDE = time-dependent effect
HCT-116 [4] = test: Antiproliferative activity against human HCT-116 cells incubated for 24 hrs by MTT assay; type: functional, cell-based; conditions: HCT-116, 24 h
A549 [5] = test: Antiproliferative activity against human A549 cells incubated for 24 hrs by MTT assay; type: functional, cell-based; conditions: A549, 24 h
A549 [6] = test: Antiproliferative activity against human A549 cells incubated for 24 to 72 hrs by MTT assay; type: functional, cell-based; conditions: dose 0.1-100 µM, time 24-72 hrs
HCT-116 [7] = test: Antiproliferative activity against human HCT-116 cells incubated for 24 to 72 hrs by MTT assay; type: functional, cell-based; conditions: dose 0.1-100 µM, time 24-72 hrs
HCT-116 [8] = test: Induction of NO production in human HCT-116 cells incubated for 6 hrs by Griess reagent based assay; type: functional, cell-based; conditions: dose 1-10 µM
HCT-116 [9] = test: Antiproliferative activity against human HCT-116 cells at 0.1 to 100 uM by MTT assay; type: functional, cell-based; conditions: dose 0.1-100 µM, time 24-72 hrs, TDE = time-dependent effect
[10] = Cytotoxicity against human CCD-841CoN cells incubated for 72 hrs by MTT assay; type: toxicity, cell-based
[11] = Cytotoxicity against human CCD-841CoN cells incubated for 24 hrs by MTT assay; type: toxicity, cell-based
HCT-116 [12] = test: Downregulation of phosphorylated GSK-3beta at Ser9 residue expression in human HCT-116 cells after 24 hrs by Western blotting analysis; type: functional, cell-based; conditions: dose 0.5-2 µM
HCT-116 [13] = test: Downregulation of beta-catenin expression in human HCT-116 cells cytosol after 24 hrs by Western blotting analysis; type: functional, subcellular; conditions: dose 0.5-2 µM
[14] = Selectivity index, ratio of IC50 for human CCD-841CoN cells to IC50 for human HCT-116 cells; type: toxicity; conditions: CCD-841CoN cells and HCT-116 cells, read-out: Ratio IC50
HCT-116 [15] = test: Downregulation of beta-catenin expression in human HCT-116 cells nucleus after 24 hrs by Western blotting analysis; type: functional, subcellular; conditions: dose 0.5-2 µM

**Q.** With `COc1cc(/C=C/C(=O)NOC/N=[N+](\[O-])N2CCOCC2)cc(OC)c1OCCCCC(=O)OCO/N=[N+](\[O-])N1CCOCC1` as the molecule, how does the IC50 (A549 [1]) read?
**A.** The IC50 was 10.6 µM.

**Q.** And the IC50 (HCT-116 [2])?
**A.** The IC50 was 28 µM.

**Q.** What about the Activity (A549 [3]) of the same molecule?
**A.** Its Activity is “Tde”.

**Q.** What about the IC50 (HCT-116 [4]) of the same molecule?
**A.** The IC50 was 35.6 µM.

**Q.** What about the IC50 (A549 [5]) of the same molecule?
**A.** Its IC50 is 18.4 µM.

**Q.** And the Activity (A549 [6])?
**A.** Its Activity is “Dose-Dependent Effect”.

**Q.** What about the Activity (HCT-116 [7]) of the same molecule?
**A.** Its Activity is “Dose-Dependent Effect”.

**Q.** And the Activity (HCT-116 [8])?
**A.** Its Activity is “Dose-Dependent Effect”.

**Q.** And the Activity (HCT-116 [9])?
**A.** Its Activity is “Tde”.

**Q.** With `O=c1[nH]cc(F)c(=O)[nH]1` [FLUOROURACIL] as the molecule, how does the IC50 (A549 [1]) read?
**A.** The IC50 was 24.2 µM.

**Q.** And the IC50 (HCT-116 [2])?
**A.** Its IC50 is 19.7 µM.

**Q.** And the IC50 (HCT-116 [4])?
**A.** Its IC50 is 29.6 µM.

**Q.** Which results are given for `CCN(CC)OC(=O)CCCCOc1c(OC)cc(/C=C/C(=O)N2CCC=C(Cl)C2=O)cc1OC`?
**A.** IC50 (HCT-116 [2]): 2.8 µM; IC50 (HCT-116 [4]): 6.3 µM

**Q.** Which results are given for `COc1cc(/C=C/C(=O)N2CCC=CC2=O)cc(OC)c1OC` [PIPLARTINE]?
**A.** IC50 (A549 [1]): 7.2 µM; IC50 (HCT-116 [2]): 8.6 µM; Activity (A549 [3]): Tde; IC50 (HCT-116 [4]): 13.3 µM; IC50 (A549 [5]): 13.2 µM; Activity (A549 [6]): Dose-Dependent Effect; Activity (HCT-116 [7]): Dose-Dependent Effect; Activity (HCT-116 [9]): Tde

**Q.** What does the source list for `CCN(CC)/[N+]([O-])=N/CONC(=O)/C=C/c1cc(OC)c(OCCCCC(=O)OCO/N=[N+](\[O-])N(CC)CC)c(OC)c1`?
**A.** IC50 (A549 [1]): 3.4 µM; IC50 (HCT-116 [2]): 3.9 µM; Activity (A549 [3]): Tde; IC50 (HCT-116 [4]): 5.4 µM; IC50 (A549 [5]): 5.7 µM; Activity (A549 [6]): Dose-Dependent Effect; Activity (HCT-116 [7]): Dose-Dependent Effect; Activity (HCT-116 [8]): Dose-Dependent Effect; Activity (HCT-116 [9]): Tde

**Q.** Which IC50 (HCT-116 [2]) does the source give for `COc1cc(/C=C/C(=O)N2CCC=C(Cl)C2=O)cc(OC)c1OC` here?
**A.** The IC50 was 6.2 µM.

**Q.** What about the IC50 (HCT-116 [4]) of the same molecule?
**A.** Its IC50 is 11.4 µM.

**Q.** And the IC50 (A549 [5])?
**A.** Its IC50 is 10.2 µM.

**Q.** With `CCN(CC)/[N+]([O-])=N/OCOC(=O)CCCCOc1c(OC)cc(/C=C/C(=O)N2CCC=C(Cl)C2=O)cc1OC` as the molecule, how does the IC50 (A549 [1]) read?
**A.** Its IC50 is 0.6 µM.

**Q.** And the IC50 at 72 h [10]?
**A.** The IC50 at 72 h was 6.1 µM.

**Q.** And the IC50 (HCT-116 [2])?
**A.** Its IC50 is 0.6 µM.

**Q.** What about the Activity (A549 [3]) of the same molecule?
**A.** Its Activity is “Tde”.

**Q.** And the IC50 (HCT-116 [4])?
**A.** Its IC50 is 0.9 µM.

**Q.** And the IC50 at 24 h [11]?
**A.** Its IC50 at 24 h is 11.3 µM.

**Q.** And the IC50 (A549 [5])?
**A.** Its IC50 is 0.8 µM.

**Q.** What about the Activity (A549 [6]) of the same molecule?
**A.** Its Activity is “Dose-Dependent Effect”.

**Q.** What about the Activity (HCT-116 [7]) of the same molecule?
**A.** The Activity was “Dose-Dependent Effect”.

**Q.** What about the Activity (HCT-116 [12]) of the same molecule?
**A.** Its Activity is “Dose-Dependent Effect”.

**Q.** What about the Activity (HCT-116 [13]) of the same molecule?
**A.** The Activity was “Dose-Dependent Effect”.

**Q.** And the selectivity ratio [14]?
**A.** Its selectivity ratio is > 10.

**Q.** What about the Activity (HCT-116 [15]) of the same molecule?
**A.** The Activity was “Dose-Dependent Effect”.

**Q.** And the Activity (HCT-116 [8])?
**A.** The Activity was “Dose-Dependent Effect”.

**Q.** And the Activity (HCT-116 [9])?
**A.** Its Activity is “Tde”.

**Q.** Which IC50 (A549 [1]) does the source give for `COc1cc(/C=C/C(=O)N2CCC=C(Cl)C2=O)cc(OC)c1OCCCCC(=O)OCO/N=[N+](\[O-])N1CCOCC1` here?
**A.** Its IC50 is 0.7 µM.

**Q.** And the IC50 (HCT-116 [2])?
**A.** Its IC50 is 0.7 µM.

**Q.** And the Activity (A549 [3])?
**A.** The Activity was “Tde”.

**Q.** What about the IC50 (HCT-116 [4]) of the same molecule?
**A.** The IC50 was 1.1 µM.

**Q.** What about the IC50 (A549 [5]) of the same molecule?
**A.** The IC50 was 1.1 µM.

**Q.** And the Activity (A549 [6])?
**A.** Its Activity is “Dose-Dependent Effect”.

**Q.** What about the Activity (HCT-116 [7]) of the same molecule?
**A.** The Activity was “Dose-Dependent Effect”.

**Q.** What about the Activity (HCT-116 [8]) of the same molecule?
**A.** The Activity was “Dose-Dependent Effect”.

**Q.** And the Activity (HCT-116 [9])?
**A.** The Activity was “Tde”.
